ChEMBL document CHEMBL6103672, “Discovery of HMPL-306 (Ranosidenib), a New Potent and Selective Dual Inhibitor of Mutant IDH1 and 2 in Clinical Development for Cancer Treatment” (ACS Med Chem Lett, 2025)

target: Isocitrate dehydrogenase [NADP], mitochondrial (Homo sapiens, UniProt P48735, R140Q); assay: Inhibition of IDH2 R140Q mutant (unknown origin) using alpha-ketoglutarate as substrate preincubated with compound for 16 hrs followed by substrate addition and measured after 1 hr in presence of NADPH by fluorescence based analysis; conditions: not given
Sequence (P48735 40-452 R140Q limits assumed): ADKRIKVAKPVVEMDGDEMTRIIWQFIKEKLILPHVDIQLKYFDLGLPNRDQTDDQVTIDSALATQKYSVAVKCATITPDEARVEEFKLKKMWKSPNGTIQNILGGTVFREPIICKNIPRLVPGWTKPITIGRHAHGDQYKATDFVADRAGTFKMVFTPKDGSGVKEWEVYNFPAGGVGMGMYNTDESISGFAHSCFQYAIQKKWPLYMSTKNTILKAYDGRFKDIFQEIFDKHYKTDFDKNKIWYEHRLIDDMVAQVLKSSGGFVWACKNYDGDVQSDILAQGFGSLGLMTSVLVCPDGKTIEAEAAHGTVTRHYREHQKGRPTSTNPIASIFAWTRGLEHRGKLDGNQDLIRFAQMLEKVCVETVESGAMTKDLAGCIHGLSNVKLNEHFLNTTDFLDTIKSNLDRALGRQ

SMILES	IC50 [nM]
CC(C)Nc1nc(N[C@H](C)C(F)(F)F)nc(C2(c3ccccc3)CC2)n1	253
CC(C)Nc1nc(N[C@H](C)C(F)(F)F)nc(N2CCCCC2)n1	> 3000
CC(C)Nc1nc(N[C@H](C)C(F)(F)F)nc(C2=CCN(C)CC2)n1	> 3000
C[C@@H](Nc1nc(NCC(C)(C)O)nc(C2=CC(O)CCC2)n1)C(F)(F)F (mixture of isomers)	1200
C[C@@H](Nc1nc(NC2CCCCC2)nc(C2=CC(O)CCC2)n1)C(F)(F)F (mixture of isomers)	43
C[C@@H](Nc1nc(NC2CC2)nc(C2=CC(O)CCC2)n1)C(F)(F)F (mixture of isomers)	257
CC(C)Nc1nc(N[C@H](C)C(F)(F)F)nc(C(C)c2ccccc2)n1 (mixture of isomers)	337
CCCNc1nc(N[C@H](C)C(F)(F)F)nc(C2=CC(O)CCC2)n1 (mixture of isomers)	35
COCCNc1nc(N[C@H](C)C(F)(F)F)nc(C2=CC(O)CCC2)n1 (mixture of isomers)	> 3000

Further lines, results first:

IC50 [nM]	SMILES
83	CC(C)Nc1nc(N[C@H](C)C(F)(F)F)nc(C2=CCCC2)n1
794	CC(C)Nc1nc(N[C@H](C)C(F)(F)F)nc(C2=C[C@H](O)CCC2)n1
2340	CC(C)Nc1nc(N[C@H](C)C(F)(F)F)nc(C2=CCOCC2)n1
120	CC(C)Nc1nc(N[C@H](C)C(F)(F)F)nc(C2=CCCC(F)C2)n1 (mixture of isomers)
1780	CC(C)Nc1nc(N[C@H](C)C(F)(F)F)nc(C2=CCCC(O)C2)n1 (mixture of isomers)
111	C[C@@H](Nc1nc(NC(C)(C)C)nc(C2=CC(O)CCC2)n1)C(F)(F)F (mixture of isomers)
85	CC(C)Nc1nc(N[C@H](C)C(F)(F)F)nc(C2=CC(O)CC2)n1 (mixture of isomers)
162	CC(C)Nc1nc(N[C@H](C)C(F)(F)F)nc(C2=CCC(F)CC2)n1 (mixture of isomers)
> 3000	CC(C)Nc1nc(N[C@H](C)C(F)(F)F)nc(C2=CCC(O)CC2)n1 (mixture of isomers)
262	CC(C)C(=O)Nc1nc(N[C@H](C)C(F)(F)F)nc(C2=CC(O)CCC2)n1 (mixture of isomers)
68	CCNc1nc(N[C@H](C)C(F)(F)F)nc(C2=CC(O)CCC2)n1 (mixture of isomers)

tested on: not listed separately; assay: Inhibition of IDH2 R140Q mutant in human U-87 MG cells incubated for 72 hrs by measuring 2-HG production by fluorescence based analysis; format: functional, cell-based, U-87MG ATCC; conditions: Homo sapiens, U-87 MG, 72 h

SMILES	IC50 [nM]
C[C@@H](Nc1nc(NCC(C)(C)O)nc(C2=CC(O)CCC2)n1)C(F)(F)F (mixture of isomers)	2800
C[C@@H](Nc1nc(NC2CCCCC2)nc(C2=CC(O)CCC2)n1)C(F)(F)F (mixture of isomers)	296
C[C@@H](Nc1nc(NC2CC2)nc(C2=CC(O)CCC2)n1)C(F)(F)F (mixture of isomers)	171
CCCNc1nc(N[C@H](C)C(F)(F)F)nc(C2=CC(O)CCC2)n1 (mixture of isomers)	174

Second part, the compound after the results:

IC50 [nM]	SMILES
1420	CC(C)Nc1nc(N[C@H](C)C(F)(F)F)nc(C2=CCCC2)n1
999	CC(C)Nc1nc(N[C@H](C)C(F)(F)F)nc(C2=C[C@H](O)CCC2)n1
319	C[C@@H](Nc1nc(NC(C)(C)C)nc(C2=CC(O)CCC2)n1)C(F)(F)F (mixture of isomers)
1670	CC(C)Nc1nc(N[C@H](C)C(F)(F)F)nc(C2=CC(O)CC2)n1 (mixture of isomers)
1540	CC(C)C(=O)Nc1nc(N[C@H](C)C(F)(F)F)nc(C2=CC(O)CCC2)n1 (mixture of isomers)
336	CCNc1nc(N[C@H](C)C(F)(F)F)nc(C2=CC(O)CCC2)n1 (mixture of isomers)
